Columns and labels:
[1] = Systemic (plasma) concentration of CPT after single bolus IV injection; format: in vivo, rats; settings: free CPT IV, 2 mg/kg
Protocol: FIG. 9 illustrates systemic (plasma) concentration of camptothecin (CPT) as a function of time after a single bolus IV injection of CPT-Nva-MPs (CPT dose=0.2 mg/kg) (squares) and free CPT (2 mg/kg) (triangles). Values are reported as mean±SD. The lower limit of quantitation was 0.1 ng/mL.
PEGylated 6 μm polystyrene MPs with three copies of the norvaline (Nva) α-amino acid prodrug of CPT were prepared. […] Referring to FIG. 10, anti-cancer efficacy was evaluated in an orthotopic rat lung cancer model and compared to a bolus injection of CPT. One week after A549 cell inoculation, nude rats were injected IV with CPT-Nva-MPs (50 and 100 mg/kg equivalent to CPT at 0.11 mg/kg and 0.22 mg/kg), free CPT (2 mg/kg) or vehicle control (saline containing 0.1% Tween 80). The treatment was conducted every 3 days for 27 days. The day after the last treatment, all animals were euthanized, and organs (lung, heart, […], spleen and […]) were dissected and weighed. The organs were fixed in 10% neutral buffered formalin for H&E staining. […] In addition, 40% of the animals receiving CPT-Nva-MPs (0.22 mg/kg) were free of cancer. […] See references 74 and 86, which are incorporated herein by reference as if fully set forth.

[2] = system: A549 cell orthotopic lung cancer; assay: Anti-cancer efficacy in orthotopic rat lung cancer model; format: in vivo, nude rats; settings: 2 mg/kg IV every 3 days for 27 days; p<0.05
Protocol: PEGylated 6 μm polystyrene MPs with three copies of the norvaline (Nva) α-amino acid prodrug of CPT were prepared. […] The treatment was conducted every 3 days for 27 days. The day after the last treatment, all animals were euthanized, and organs (lung, heart, […], spleen and […]) were dissected and weighed. The organs were fixed in 10% neutral buffered formalin for H&E staining. […] See references 74 and 86, which are incorporated herein by reference as if fully set forth.

SMILES: CC[C@@]1(O)C(=O)OCc2c1cc1n(c2=O)Cc2cc3ccccc3nc2-1 [free CPT, camptothecin]
- systemic CPT exposure (in words) [1]: high but short-lived systemic exposures
- area of lung cancer versus untreated animals [2]: smaller areas of lung cancer

Reference: US9421194B2, “Lung targeting dual drug delivery system” (priority 2010, dated 2016)
